From US9969747B2 (Constellation Pharmaceuticals, Inc., priority 2014, dated 2018)
Several values for one entry are separate records, joined by “and”; a condition that tells them apart may be missing. Equal values may be shown once. Read-outs that look alike come from different tables or passages of the source. One block for each molecule: values may come before it.

Experiments:
[1] = Oral pharmacokinetics in male Sprague Dawley rats, suspension in 0.5% Methylcellulose; type: in vivo; conditions: for Plasma concentration, PO1: group value
[2] = Oral pharmacokinetics in male beagle dogs, crossover, suspension in 0.5% MC; type: in vivo; conditions: for Inter-individual variability: 2 mg/Kg oral, crossover
Experimental: The objective was to compare the pharmacokinetic profiles of both forms in dogs using a crossover study design in which the same dogs were dosed sequentially with amorphous and monohydrate crystalline Form A with a washout period in between.

[3] = Gravimetric moisture sorption; type: physicochemical; conditions: over a relative humidity range of 5 to 95%
Description: This level of stability is rare for many pharmaceutical compounds, and particularly for hydrated forms since most are typically stable only at lower threshold values. Typically, one would expect to see stability of a monohydrate stoichiometry over a more limited range, e.g., between 30 to 70%. At relative humidity levels below 30% a compound would still retain water, but the stoichiometric ratio would be less than that of a true monohydrate. Likewise, at high relative humidity, the stoichiometric ratio of water to compound would exceed that of a monohydrate.

[4] = Solubility and form stability in deionized water; type: physicochemical
[5] = 60 mg/Kg single oral dose, 60 mg/kg
[6] = 60 mg/Kg single oral dose, 1 h, 60 mg/kg
[7] = 60 mg/Kg single oral dose, 2 h, 60 mg/kg
[8] = 60 mg/Kg single oral dose, 4 h, 60 mg/kg
[9] = 60 mg/Kg single oral dose, 8 h, 60 mg/kg
[10] = 60 mg/Kg single oral dose, 24 h, 60 mg/kg
[11] = male beagle dog, 2 mg/Kg single oral dose, 0.25 h, 2 mg/kg
[12] = male beagle dog, 2 mg/Kg single oral dose, 0.5 h, 2 mg/kg
[13] = male beagle dog, 2 mg/Kg single oral dose, 1 h, 2 mg/kg
[14] = male beagle dog, 2 mg/Kg single oral dose, 2 h, 2 mg/kg
[15] = male beagle dog, 2 mg/Kg single oral dose, 4 h, 2 mg/kg
[16] = male beagle dog, 2 mg/Kg single oral dose, 6 h, 2 mg/kg
[17] = male beagle dog, 2 mg/Kg single oral dose, 8 h, 2 mg/kg
[18] = male beagle dog, 2 mg/Kg single oral dose, 12 h, 2 mg/kg
[19] = male beagle dog, 2 mg/Kg single oral dose, 24 h, 2 mg/kg
[20] = male beagle dog, 2 mg/Kg single oral dose, 2 mg/kg
[21] = 60 mg/Kg single oral dose, 1 h, 60 mg/kg, in ng/mL
[22] = 60 mg/Kg single oral dose, 2 h, 60 mg/kg, in ng/mL

Plasma concentration, individual rats ([1]; 10 mg/Kg single oral dose, 299 s, 10 mg/kg): 51.3 ng/mL and 182 ng/mL and 89.2 ng/mL and 191 ng/mL and 166 ng/mL and 31.5 ng/mL | Plasma concentration, individual rats ([1]; 10 mg/Kg single oral dose, 1.00 h, 10 mg/kg): 1940 ng/mL and 1620 ng/mL and 1510 ng/mL and 2300 ng/mL and 1790 ng/mL and 1600 ng/mL | Plasma concentration, PO1 ([1]; 10 mg/Kg single oral dose, 1.00 h): 1790 ng/mL | Plasma concentration, individual rats ([1]; 10 mg/Kg single oral dose, 2.00 h, 10 mg/kg): 1400 ng/mL and 1320 ng/mL and 1420 ng/mL and 1650 ng/mL and 950 ng/mL and 1000 ng/mL | Plasma concentration, PO1 ([1]; 10 mg/Kg single oral dose, 2.00 h): 1290 ng/mL | Plasma concentration, individual rats ([1]; 10 mg/Kg single oral dose, 4.00 h, 10 mg/kg): 611 ng/mL and 349 ng/mL and 569 ng/mL and 544 ng/mL and 166 ng/mL and 255 ng/mL | Plasma concentration, PO1 ([1]; 10 mg/Kg single oral dose, 4.00 h): 416 ng/mL | Plasma concentration, individual rats ([1]; 10 mg/Kg single oral dose, 8.00 h, 10 mg/kg): 56.3 ng/mL and 18.1 ng/mL and 32.4 ng/mL and 13.6 ng/mL and 2.93 ng/mL and 18.2 ng/mL | Plasma concentration, PO1 ([1]; 10 mg/Kg single oral dose, 8.00 h): 23.6 ng/mL | Tmax ([1]; 60 mg/Kg single oral dose): 2.0 h | AUC0-last [1, 5]: 52800 ng·h/mL | Cmax [1, 5]: 7197 ng/mL | Plasma concentration, Mean ([1]; 60 mg/Kg single oral dose, 299 s): 304 ng/mL | Plasma concentration, individual rats ([1]; 60 mg/Kg single oral dose, 299 s, 60 mg/kg): 183 ng/mL and 407 ng/mL and 512 ng/mL and 158 ng/mL and 391 ng/mL and 172 ng/mL | Plasma concentration, Mean ([1]; 60 mg/Kg single oral dose, 0.250 h): 2150 ng/mL | Plasma concentration, individual rats ([1]; 60 mg/Kg single oral dose, 0.250 h, 60 mg/kg): 1830 ng/mL and 2770 ng/mL and 2670 ng/mL and 2150 ng/mL and 2050 ng/mL and 1420 ng/mL | Plasma concentration, Mean ([1]; 60 mg/Kg single oral dose, 0.500 h): 4060 ng/mL | Plasma concentration, individual rats ([1]; 60 mg/Kg single oral dose, 0.500 h, 60 mg/kg): 3610 ng/mL and 5250 ng/mL and 3790 ng/mL and 4120 ng/mL and 4050 ng/mL and 3550 ng/mL | Plasma concentration, Mean [1, 6]: 5530 ng/mL | Plasma concentration, individual rats [1, 6]: 5290 ng/mL and 6110 ng/mL and 6840 ng/mL and 5440 ng/mL and 4740 ng/mL and 4770 ng/mL | Plasma concentration, Mean [1, 7]: 7200 ng/mL | Plasma concentration, individual rats [1, 7]: 8220 ng/mL and 7490 ng/mL and 6700 ng/mL and 8330 ng/mL and 6850 ng/mL and 5590 ng/mL | Plasma concentration, Mean [1, 8]: 6070 ng/mL | Plasma concentration, individual rats [1, 8]: 7740 ng/mL and 4850 ng/mL and 5160 ng/mL and 8350 ng/mL and 5690 ng/mL and 4650 ng/mL | Plasma concentration, Mean [1, 9]: 1760 ng/mL | Plasma concentration, individual rats [1, 9]: 3050 ng/mL and 805 ng/mL and 1220 ng/mL and 1960 ng/mL and 2320 ng/mL and 1200 ng/mL | Plasma concentration, individual rats [1, 10]: BQL (5×) and 1.04 | AUC(0-t) ([1]; male, Sprague Dawley, rat, plasma, po, 10 mg/kg, 10 mg/Kg single oral dose): 5500 ng·h/mL | Cmax ([1]; male, Sprague Dawley, rat, plasma, po, 10 mg/kg, 10 mg/Kg single oral dose, read-out: Cmax): 1790 ng/mL | Inter-individual differences ([1]; oral, 10 and 60 mg/Kg): Low inter-individual differences | Tmax ([1]; rat, plasma, 10 mg/Kg single oral dose, read-out: Tmax): 1 h | Inter-individual variability ([2]; male beagle dog): low inter-individual variability | Tmax, Mean ([2]; male beagle dog, 2 mg/Kg single oral dose): 1.50 h | Plasma concentration, Mean [2, 11]: 100 ng/mL | Plasma concentration, Mean [2, 12]: 330 ng/mL | Plasma concentration, Mean [2, 13]: 522 ng/mL | Plasma concentration, Mean [2, 14]: 512 ng/mL | Plasma concentration, Mean [2, 15]: 435 ng/mL | Plasma concentration, Mean [2, 16]: 278 ng/mL | Plasma concentration, Mean [2, 17]: 214 ng/mL | Plasma concentration, Mean [2, 18]: 151 ng/mL | Plasma concentration, Mean [2, 19]: 67.1 ng/mL | AUC0-inf, Mean [2, 20]: 5853 ng·h/mL | AUC0-last, Mean [2, 20]: 4892 ng·h/mL | Cmax, Mean [2, 20]: 536 ng/mL | MRT0-last, Mean [2, 20]: 7.95 h | T1/2, Mean [2, 20]: 9.70 h | Tmax, individual dogs [2, 20]: 2.00 h | Water content (monohydrate stoichiometry) in gravimetric moisture sorption [3]: approximately 5% | Stability of the form in deionized water ([4]; deionized water): stable | solubility ([4]; deionized water, water, thermodynamic from solid): 4.5 µg/mL
Structure (SMILES): Cc1noc2c1-c1ccccc1C(c1ccc(Cl)cc1)=N[C@H]2CC(N)=O [monohydrate Form A, 2-((4S)-6-(4-chlorophenyl)-1-methyl-4H-benzo[c]isoxazolo[4,5-e]azepin-4-yl)acetamide]
Dose proportionality of Cmax and AUC ([1]; oral, dose increases from 10 to 60 mg/Kg): increase slightly more than proportionally with the dose | AUC0-inf, individual dogs [2, 20]: 5350 ng·h/mL and 4540 ng·h/mL and 7490 ng·h/mL and 4980 ng·h/mL and 6220 ng·h/mL and 6540 ng·h/mL | AUC0-last, individual dogs [2, 20]: 4650 ng·h/mL and 4040 ng·h/mL and 5850 ng·h/mL and 3960 ng·h/mL and 5390 ng·h/mL and 5460 ng·h/mL | Cmax, individual dogs [2, 20]: 542 ng/mL and 482 ng/mL and 615 ng/mL and 459 ng/mL and 549 ng/mL and 569 ng/mL | MRT0-last, individual dogs [2, 20]: 7.74 h and 7.34 h and 8.38 h and 8.01 h and 7.93 h and 8.32 h | T1/2, individual dogs [2, 20]: 8.60 h and 8.14 h and 11.97 h and 11.58 h and 8.31 h and 9.57 h

Plasma concentration, individual rats [1, 6]: 8650 ng/mL | Plasma concentration, Mean [1, 21]: 11700 | Plasma concentration, individual rats [1, 21]: 12700 and 13800 | Plasma concentration, individual rats [1, 7]: 8830 ng/mL | Plasma concentration, Mean [1, 22]: 11900 | Plasma concentration, individual rats [1, 22]: 14900 and 12100 | Plasma concentration, Mean [1, 8]: 9860 ng/mL | Plasma concentration, individual rats [1, 8]: 8410 ng/mL and 9370 ng/mL | Plasma concentration, individual rats ([1]; 60 mg/Kg single oral dose, 4 h, 60 mg/kg, in ng/mL): 11800 | Plasma concentration, Mean [1, 9]: 6440 ng/mL | Plasma concentration, individual rats [1, 9]: 6550 ng/mL and 6450 ng/mL and 6310 ng/mL | Plasma concentration, Mean ([1]; 60 mg/Kg single oral dose, 24 h): BQL | Plasma concentration, individual rats [1, 10]: BQL | Cmax ([1]; male, Sprague Dawley, rat, plasma, po, 60 mg/kg, 60 mg/Kg single oral dose, read-out: Cmax): 11900 ng/mL | Tmax ([1]; rat, plasma, 60 mg/Kg single oral dose, read-out: Tmax): 2 h | Inter-individual variability ([2]; male beagle dog): low inter-individual variability | Plasma concentration, Mean [2, 11]: 188 ng/mL | Plasma concentration, Mean [2, 12]: 471 ng/mL | Plasma concentration, Mean [2, 13]: 658 ng/mL | Plasma concentration, Mean [2, 14]: 577 ng/mL | Plasma concentration, Mean [2, 15]: 528 ng/mL | Plasma concentration, Mean [2, 16]: 289 ng/mL | Plasma concentration, Mean [2, 17]: 232 ng/mL | Plasma concentration, Mean [2, 18]: 153 ng/mL | Plasma concentration, Mean [2, 19]: 64 ng/mL | MRT0-last, individual dogs [2, 20]: 7.73 h (2×) and 6.48 h and 7.69 h | Tmax, individual dogs [2, 20]: 1.00 h (5×) and 4.00 h | Tmax ([2]; male, beagle, dog, plasma, po, 2 mg/kg, 2 mg/Kg single oral dose): 1.5 h | AUC(0-inf) ([2]; male, beagle, dog, plasma, po, 2 mg/kg, 2 mg/Kg single oral dose, read-out: AUC0-inf, Mean): 6220 ng·h/mL | AUC(0-inf) ([2]; male, beagle, dog, plasma, po, 2 mg/kg, 2 mg/Kg single oral dose, read-out: AUC0-inf, individual dogs): 6110 ng·h/mL | AUC(0-t) ([2]; male, beagle, dog, plasma, po, 2 mg/kg, 2 mg/Kg single oral dose, read-out: AUC0-last, Mean): 5390 ng·h/mL | AUC(0-t) ([2]; male, beagle, dog, plasma, po, 2 mg/kg, 2 mg/Kg single oral dose, read-out: AUC0-last, individual dogs): 5370 ng·h/mL | Cmax ([2]; male, beagle, dog, plasma, po, 2 mg/kg, 2 mg/Kg single oral dose, read-out: Cmax, Mean): 670 ng/mL | Cmax ([2]; male, beagle, dog, plasma, po, 2 mg/kg, 2 mg/Kg single oral dose, read-out: Cmax, individual dogs): 609 ng/mL | MRT inf ([2]; male, beagle, dog, plasma, po, 2 mg/kg, 2 mg/Kg single oral dose, read-out: MRT0-inf, Mean): 11.2 h | MRT inf ([2]; male, beagle, dog, plasma, po, 2 mg/kg, 2 mg/Kg single oral dose, read-out: MRT0-inf, individual dogs): 11 h | MRT last ([2]; male, beagle, dog, plasma, po, 2 mg/kg, 2 mg/Kg single oral dose, read-out: MRT0-last, Mean): 7.45 h | MRT last ([2]; male, beagle, dog, plasma, po, 2 mg/kg, 2 mg/Kg single oral dose, read-out: MRT0-last, individual dogs): 7.59 h | half-life ([2]; male, beagle, dog, plasma, po, 2 mg/kg, 2 mg/Kg single oral dose, read-out: T1/2, Mean (converted)): 8.59 h | half-life ([2]; male, beagle, dog, plasma, po, 2 mg/kg, 2 mg/Kg single oral dose, read-out: T1/2, individual dogs (converted)): 8.31 h
Structure (SMILES): Cc1noc2c1-c1ccccc1C(c1ccc(Cl)cc1)=N[C@H]2CC(N)=O [amorphous form, 2-((4S)-6-(4-chlorophenyl)-1-methyl-4H-benzo[c]isoxazolo[4,5-e]azepin-4-yl)acetamide]
AUC0-inf, individual dogs [2, 20]: 5120 ng·h/mL and 7510 ng·h/mL and 6550 ng·h/mL and 4950 ng·h/mL and 7070 ng·h/mL | AUC0-last, individual dogs [2, 20]: 4560 ng·h/mL and 6220 ng·h/mL and 5540 ng·h/mL and 4610 ng·h/mL and 6060 ng·h/mL | Cmax, individual dogs [2, 20]: 646 ng/mL and 681 ng/mL and 672 ng/mL and 705 ng/mL and 706 ng/mL | T1/2, individual dogs [2, 20]: 7.86 h and 10.17 h and 9.21 h and 6.82 h and 9.17 h | Form change upon slurry in deionized water ([4]; slurry in deionized water for 24 hr at ambient temperature): conversion to monohydrate Form A was observed
